Columns and labels:
[1] = tested on: HepG2 cells; test: EZ-Cytox Enhanced cell viability assay, HepG2; assay type: cell-based; conditions: 48 h exposure, read-out: IC50, cell cytotoxicity / proliferation inhibition
Method: (§1) HepG2 cells were purchased from the American Type Culture Collection (ATCC, Manassas, VA, USA), and Huh7 cells and SNU449 cells were purchased from the Korean Cell Line Bank (Seoul, Korea). Cells were cultured according to the suppliers’ instructions. HepG2 cells were cultured in Eagle’s minimum essential medium (ATCC) containing 10% FBS (Life Technologies), 2 mM L-glutamine, and penicillin-streptomycin (Life Technologies) at 37 °C in 5% CO2. Huh7 and SNU449 cells were cultured in RPMI1640 (Life Technologies) containing 10% FBS (Life Technologies), 2 mM L-glutamine, and penicillin-streptomycin (Life Technologies) at 37 °C in 5% CO2. Anisomycin was purchased from Sigma-Aldrich (St. Louis, MO, USA) and dissolved at a concentration of 20 mg/mL in 100% DMSO as a stock solution. The stock solution was stored at −20 °C and diluted in medium before each experiment. […]
(§2) Cell proliferation was assessed using an EZ-Cytox Enhanced cell viability assay kit from ITSBIO (Seoul, Republic of Korea). […] At the end of the incubation, the absorbance in each well was measured at 450 nm using a microplate reader. The relative cell viability (%) was calculated using the equation OD^T/OD^C × 100% (where OD^T represents the absorbance of the treatment group, and OD^c represents the absorbance of the control group). […]

[2] = tested on: Huh7 cells; test: EZ-Cytox Enhanced cell viability assay, Huh7; assay type: cell-based; conditions: 48 h exposure, read-out: IC50, cell cytotoxicity / proliferation inhibition
Method: as §1, §2

[3] = tested on: SNU449 cells; test: EZ-Cytox Enhanced cell viability assay, SNU449; assay type: cell-based; conditions: 48 h exposure, read-out: IC50, cell cytotoxicity / proliferation inhibition
Method: as §1, §2

[4] = tested on: HepG2 cells; test: Annexin V / 7-ADD apoptosis flow cytometry, HepG2; assay type: cell-based; conditions: 48 h
Method: (§3) To analyse apoptotic cells, we stained cells with anti-human CD56-allophycocyanin monoclonal antibodies, 7ADD, and Annexin V (BioLegend, San Diego, CA, USA) following the protocol provided by the manufacturer. Briefly, we stained cells with anti-human CD56-allophycocyanin monoclonal antibodies on ice for 10 min, washed cells with an appropriate volume of chilled Annexin V binding buffer (BioLegend), and resuspended cells in chilled Annexin V binding buffer (BioLegend) in the presence of Annexin V and 7ADD. The cells were incubated on ice for 30 min, washed with chilled Annexin V binding buffer, and analysed. Staining data were collected using a FACSCanto II Cytometer (BD Biosciences).

[5] = tested on: Huh7 cells; test: Annexin V / 7-ADD apoptosis flow cytometry, Huh7; assay type: cell-based; conditions: 48 h
Method: as §3

[6] = tested on: SNU449 cells; test: Annexin V / 7-ADD apoptosis flow cytometry, SNU449; assay type: cell-based; conditions: 48 h
Method: as §3

[7] = tested on: HepG2 cells; test: Apoptosis of anisomycin-pre-treated HepG2 cells cocultured with NK cells (flow cytometry); assay type: cell-based, human; conditions: HepG2 pre-treated 0.2 μM 48 h, then NK cells 4 h, CD56-negative gate
Text: Peripheral blood from healthy donors was obtained from the Red Cross Blood Center. We followed the guidelines of the Red Cross, and all methods and protocols involving the use of human peripheral blood were approved by the Institutional Review Board of the Red Cross. Based on the Red Cross guidelines, informed consent for study participation was obtained, and donor information was not provided. NK cells were isolated from whole blood to more than 95% purity by negative selection using a RosetteSep Human NK Cell Enrichment Cocktail (StemCell Technologies, Vancouver, Canada) according to the manufacturer’s protocol. The isolated NK cells were washed in HBSS plus 4% foetal bovine serum (FBS; Life Technologies, Carlsbad, CA, USA) and resuspended in MEM-α (Life Technologies) containing 20% FBS (Life Technologies) and penicillin-streptomycin (Life Technologies) at 37 °C in 5% CO2.
To analyse apoptotic cells, we stained cells with anti-human CD56-allophycocyanin monoclonal antibodies, 7ADD, and Annexin V (BioLegend, San Diego, CA, USA) following the protocol provided by the manufacturer. […] The cells were incubated on ice for 30 min, washed with chilled Annexin V binding buffer, and analysed. […]

[8] = tested on: HepG2 carcinoma; test: HepG2 tumour xenograft in NOD-SCID mice with or without human primary NK cells; assay type: in vivo, mouse; conditions: 10 mg/kg i.p.
Text: NOD.CB17-Prkdc^scid/NCrCrl mice were purchased from Charles River Laboratories, Inc. (Wilmington, MA, USA). We used 6-8-week-old female mice in all experiments; these mice were housed in a pathogen-free animal facility. All animal experiments were approved by the Institutional Animal Use and Care Committee of the Korea Research Institute of Bioscience and Biotechnology and performed in accordance with the Guide for the Care and Use of Laboratory Animals published by the US National Institutes of Health.
Six-week-old female NOD.CB17-Prkdc^scid/NCrCrl mice were purchased from Charles River Laboratories, Inc. Xenograft models were established by subcutaneous injection of 1 × 10^6 HepG2 cells into the right flanks of the mice. Five days after inoculation, the mice were randomly separated into groups of four. Anisomycin (10 mg/kg) was administered from day 0 to 5 and from day 15 to 20 after initiation of anisomycin treatment via the intraperitoneal (i.p) route. NK cells (5 × 10^6 cells/mouse) were transferred into mice two times on days 6 and 11 during the treatment pause period. Tumours were measured every 3 days using callipers, and their volumes were calculated according to the following formula: volume (mm^3) = (d^2 × D)/2, where d and D represent the shortest and longest tumour diameters, respectively.

[9] = tested on: HepG2, Huh7, and SNU449 cells; test: Light microscopy of cell density; assay type: cell-based; conditions: 0.2 μM, 2 days
Method: HepG2 cells were purchased from the American Type Culture Collection (ATCC, Manassas, VA, USA), and Huh7 cells and SNU449 cells were purchased from the Korean Cell Line Bank (Seoul, Korea). Cells were cultured according to the suppliers’ instructions. HepG2 cells were cultured in Eagle’s minimum essential medium (ATCC) containing 10% FBS (Life Technologies), 2 mM L-glutamine, and penicillin-streptomycin (Life Technologies) at 37 °C in 5% CO2. Huh7 and SNU449 cells were cultured in RPMI1640 (Life Technologies) containing 10% FBS (Life Technologies), 2 mM L-glutamine, and penicillin-streptomycin (Life Technologies) at 37 °C in 5% CO2. Anisomycin was purchased from Sigma-Aldrich (St. Louis, MO, USA) and dissolved at a concentration of 20 mg/mL in 100% DMSO as a stock solution. The stock solution was stored at −20 °C and diluted in medium before each experiment. […] Antibodies against caspase3, PARP, and β-actin were purchased from Cell Signaling Technology (Danvers, MA, USA).

[10] = tested on: cleaved caspase-3, cleaved PARP; test: Immunoblot of cleaved caspase-3 and cleaved PARP in sorted HepG2 cells; assay type: cell-based; conditions: HepG2, 0.2 μM 48 h
Method: HepG2 cells were cultured in the presence or absence of 0.2 µM anisomycin for 2 days and harvested for cell counts. Then, 1 × 10^7 HepG2 cells were cocultured with 1 × 10^7 NK cells for 2 h and harvested by centrifugation at 1,000 rpm for 5 min. Cells were stained with anti-human CD56 monoclonal antibodies (BioLegend), washed, and resuspended in PBS containing HBSS supplemented with 4% FBS (Gibco). CD56-negative HepG2 cells were isolated to nearly 100% purity using an Aria cytometer (BD Biosciences).
Cells were suspended in modified RIPA lysis buffer (150 mM NaCl, 1 mM EDTA, 1% Triton X-100, 1% NP-40, 0.5% sodium deoxycholate, 0.1% sodium dodecyl sulphate [SDS], and 50 mM Tris-HCl [pH 7.4]) containing a protease inhibitor cocktail (Roche, Mannheim, Germany) and phosphatase inhibitors (1 mM sodium fluoride and 2 mM sodium orthovanadate) on ice for 30 min and centrifuged at 15,000 × g for 30 min to collect whole-cell lysates. Proteins (10–20 µg) were then separated by SDS-polyacrylamide gel electrophoresis on 8‒12% gels and transferred to polyvinylidene difluoride membranes (Millipore, Bedford, MA, USA). Western blotting was performed with primary antibodies against caspase3, PARP, and β-actin (Cell Signaling Technology) and peroxidase-conjugated anti-mouse or anti-rabbit secondary antibodies. Proteins were visualized with Enhanced Chemiluminescence Plus reagents (Amersham Biosciences, Piscataway, NJ, USA).

[11] = tested on: CD58; test: Western blot of CD58 in HCC cells; assay type: cell-based; conditions: 0.2 μM, HepG2, Huh7, SNU449 cells
[12] = tested on: MHC-I molecules (HLA-A, -B, and -C); test: Flow cytometry of MHC-I (HLA-A, -B, -C) on HCC cells; assay type: cell-based; conditions: 0.2 μM 48 h, HepG2, SNU449, Huh7 cells

Compound: COc1ccc(C[C@H]2NC[C@H](O)[C@H]2OC(C)=O)cc1 [anisomycin]
- IC50 [1]: 0.0822 µM
- IC50 [2]: 0.118 µM
- IC50 [3]: 0.138 µM
- Annexin V and 7-ADD double-positive cells (apoptotic cells) ([4]; HepG2, 0.1 μM): 1.23%
- Annexin V and 7-ADD double-positive cells (apoptotic cells) ([4]; HepG2, 0.2 μM): 2.81%
- Annexin V and 7-ADD double-positive cells (apoptotic cells) ([5]; Huh7, 0.1 μM): 4.59%
- Annexin V and 7-ADD double-positive cells (apoptotic cells) ([5]; Huh7, 0.2 μM): 6.85%
- Annexin V and 7-ADD double-positive cells (apoptotic cells) ([6]; SNU449, 0.1 μM): 2.24%
- Annexin V and 7-ADD double-positive cells (apoptotic cells) ([6]; SNU449, 0.2 μM): 4.94%
- Annexin V and 7ADD double-positive cells (apoptotic cells) after coculture with NK cells [7]: 14.00%
- Tumour suppression in the presence of human primary NK cells ([8]; days 0 to 5 and 15 to 20, NK cells 5 × 10^6 cells/mouse on days 6 and 11): synergistically enhanced
- Body weight loss and abnormal behaviours of treated mice ([8]; days 0 to 5 and 15 to 20, NOD-SCID mice): did not show significant body weight loss or any abnormal behaviours
- HepG2 tumour size in mice ([8]; days 0 to 5 and 15 to 20, NOD-SCID mice, without NK cells): significantly reduced HepG2 tumour size
- Cell densities observed by light microscopy [9]: reduced the cell densities
- Cleaved PARP ([10]; anisomycin and NK cells): substantially increased
- Cleaved caspase-3 protein after exposure to NK cells ([10]; then NK cells 2 h): synergistically increased
- Level of the cleaved form of caspase-3 ([10]; with or without NK cell treatment): significantly increased
- Expression of CD58 (western blot) [11]: increased the expression of CD58 in all three HCC cell lines
- MHC-I molecules (HLA-A, -B, -C) at the protein level [12]: significantly downregulated

Reference: paper PMC6045618, “Novel natural killer cell-mediated cancer immunotherapeutic activity of anisomycin against hepatocellular carcinoma cells” (Scientific Reports, 2018)
